Test results: patent US11560360B2, “Therapeutic compounds” (ARIZONA BOARD OF REGENTS ON BEHALF OF ARIZONA STATE …, priority 2016, dated 2023)

Columns and labels:
[1] = system: FRDA lymphocytes; experiment: Cytotoxicity assay in FRDA lymphocytes cultured in glucose free media (galactose), Live/Dead flow cytometry; type: cell-based
Method: Flow cytometric determination of cell viability by fluorescence labeling was used employing calcein acetoxy-methyl-ester and ethidium homodimer-1 as live and dead cell stains
Cytotoxicity was assessed by the dye exclusion method. Live cells have intact membranes, which exclude a variety of dyes that easily penetrate the damaged, permeable membranes of non-viable cells. Propidium iodide, a membrane impermeant dye, is generally excluded from viable cells, although it can enter non-viable cells and bind to double-stranded DNA by intercalating between base pairs. Compounds 1-5 were tested for their cytotoxicity in FRDA lymphocytes using FACS analysis with propidium iodide. The results are depicted in FIG. 2. From the results it is evident that cytotoxicity decreases with increasing lipophilicity in lower as well as higher concentrations for compounds 1-5.
Evaluation of compounds 1-5 for their cytotoxicity and their ability to function within the mitochondrial respiratory chain was carried out by incubation of the prepared compounds for 24 or 48 h with FRDA lymphocytes. A nutrient-sensitized screening strategy has been used by culturing FRDA cells in galactose as the sole sugar source which forces mammalian cells to rely on mitochondrial oxidative phosphorylation (OXPHOS) to produce their ATP; they also become more sensitive to mitochondrial respiratory chain inhibitors than cells grown in glucose medium. Compounds 1-5 were tested for their cytotoxicity in FRDA lymphocytes using a simultaneous staining with a two-color fluorescence assay, the Live/Dead® Viability/Cytotoxicity Kit (Molecular Probes). This assay is used to measure two recognized parameters of cell viability, intracellular esterase activity and plasma integrity. The membrane-impermeant DNA dye ethidium homodimer-1 (EthD-1) was used to identify dead cells whose plasma membrane integrity was disrupted. The membrane-permeant dye calcein-AM was used to label live cells. It penetrates into the cells where it is metabolized by cytoplasmic esterases and becomes a fluorescent but membrane-impermeant probe which is retained in viable cells. One mL of FRDA lymphocyte cells (5×10^5 cells) was plated in a 24-well plate in glucose free media (galactose 25 mM), treated with the test compounds and incubated at 37° C. for 24 h or 48 h in a humidified atmosphere containing 5% CO2 in air. Cells were collected by centrifugation at 300×g for 3 min and washed with phosphate buffered saline. […] The samples were analyzed immediately by flow cytometry (C6 Accuri, BD Biosciences, San Jose, Calif.), using a 488 nm excitation laser and the and the FL1-H channel 530±15 nm emission filter and the FL2-H channel 585±15 nm. For each analysis 10,000 events were recorded and analyzed using C6 Accuri software (BD Biosciences).

[2] = system: mitochondrial inner membrane potential in FRDA lymphocytes; experiment: JC-1 mitochondrial membrane potential (Δψm) assay; type: cell-based, human; conditions: 16 h pre-treatment, JC-1, FACS (FIG. 4)
Method: In each analysis, 10000 events were recorded. Depolarization with carbonyl cyanide p-(trifluoromethoxy) phenylhydrazone (FCCP), was used to serve as a positive control.
The ability of 1-5 to maintain mitochondrial membrane potential (ΔΨm) compared to the parent compound MV was studied. ΔΨm was determined using the cationic fluorescent dye 5, 5′, 6, 6′-tetrachloro-1, 1′, 3, 3′-tetraethylbenzimidazolyl carbocyanine iodide (JC-1), which is a lipophilic cation that selectively accumulates in mitochondria due to the negative potential across the inner mitochondrial membrane. The dye exists as a monomer at low concentrations giving a green fluorescence. […] Therefore, mitochondrial depolarization is indicated by a decrease in red/green fluorescence ratio. […]
The ability of the test compounds to depolarize or maintains mitochondrial inner membrane potential (Δψm) was assessed using the JC-1 probe. […] JC-1 is a dual stain, which can identify high membrane potential through J-aggregates (red fluorescence) and low membrane potential through J-monomers (green fluorescence). […] Cells were resuspended in phosphate buffered saline supplemented with 20 mM glucose and were analyzed immediately by FACS (C6 Accuri, BD Biosciences, San Jose, Calif.), using a 488 nm excitation laser and the FL1-H channel 530±15 nm emission filter and the FL2-H channel 585±15 nm. […]

[3] = system: FRDA lymphocytes; experiment: Measurement of cellular ATP concentration (firefly luciferase); type: cell-based, human; conditions: glucose free media (25 mM galactose), relative to untreated control (FIG. 6)
Method: Results are expressed as percentage of total ATP relative to untreated control.
ATP levels in FRDA lymphocytes were measured using firefly luciferase. The cells were grown on glucose-free media supplemented with galactose for 24 h prior to the addition of the test compounds. Since cells grown in galactose rely mostly on oxidative phosphorylation (OX-PHOS) to produce their ATP, they become more sensitive to mitochondrial respiratory chain inhibitors than cells grown in glucose medium.
Measurement of Cellular ATP Concentration
Total ATP levels in FRDA lymphocytes with or without partially blocking complex I activity with rotenone (5 nM) were measured using firefly luciferase as a means to measure ATP level. The cells were grown on glucose-free media supplemented with galactose. Since cells grown in galactose rely mostly on oxidative phosphorylation (OXPHOS) to produce their ATP, they become more sensitive to mitochondria respiratory chain inhibitors than cells grown in glucose medium. Briefly, lymphocytes (2×10^5 cell/mL) were plated (1 mL) in 24-well plates, treated with the test compounds, and then incubated at 37° C. for 48 h in a humidified atmosphere containing 5% CO2 in air. FRDA lymphocytes with partial inhibition of complex I, cells were preincubated with test compounds for overnight before rotenone (5 nM) treatment for 24 h. Cells in each well were mixed and transferred (100 μL) to 96-well microtiter black-walled cell culture plates (Costar, Corning, N.Y.). The total intracellular ATP level was measured in a luminator (Clarity™ luminescence microplate reader) using an ATP Bioluminescence Assay Kit (ViaLight®-Plus ATP monitoring reagent kit, Lonza) following the manufacturer's protocol. The total ATP level was expressed as a percentage of untreated control. Data are reported as the mean of at least three independent experiments.

For `CN(C)c1ccc2nc3ccc(=[N+](C)C)cc-3sc2c1` [MB, Methylene blue, reference compound], the cytotoxicity ([1]; FRDA lymphocytes on galactose for 48 h (FIG. 2)) was “cytotoxic”, the cytotoxicity ([1]; FRDA lymphocytes, 0.5-2.5 μM concentrations) was “strong cytotoxicity” and the “preservation of mitochondrial membrane potential (Δψm)” value [2] was “significantly depolarized Δψm”. The “cellular ATP levels” value [3] was “inhibited ATP production, especially at higher concentrations”.
